{"source": "patent US20220135942A1", "about": "“CULTURED TISSUE AND METHOD FOR PRODUCING SAME” (NAGASAKI UNIVERSITY, priority 2019, published 2022)", "key": {"[1]": {"system": "bile ducts formed from the rCLiPs cocultured with rat primary hepatocytes", "test": "CLF transfer to bile ducts in coculture of rCLiP bile ducts and rat primary hepatocytes", "assay_type": "in vitro ADME", "details": "rat primary hepatocytes cocultured 3 days; observed 2, 24 and 72 hours after CLF addition; excitation 480 nm; FIG. 3A", "excerpt": "(§1) It can be confirmed by various methods using labeled compounds that the glandular cavities and the ducts are functionally connected in the cultured tissue produced by the above-mentioned method. For example, a compound obtaining by labeling a compound the behavior of which in the glandular cavities and the ducts is known and which are objects to be confirmed can be used. The functional connection between the glandular cavities and the ducts can be specifically confirmed by confirming whether the labeled secretion or the analogue thereof is incorporated into the glandular cells, and the labeled secretion or the analogue thereof secreted from the glandular cells can be detected from the ducts. […] When CLF is incorporated into the hepatocytes cocultured with the bile ducts, and the fluorescence of CLF is detected from the bile ducts, it can be confirmed that CLF is secreted from the hepatocytes to the biliary canaliculi, and the secreted CLF moves to the bile ducts, namely that the biliary canaliculi and the bile ducts are functionally connected. […]\nOne day after the inoculation of the primary hepatocytes, the medium was exchanged for the BIM-2 medium. […] The appearances of the cells 2 hours, 24 hours, and 72 hours after the addition of the CLF solution were observed through a phase-contrast microscope and a fluorescence microscope (FIG. 3A). […]"}, "[2]": {"system": "bile ducts formed from rCLiPs only", "test": "CLF added to rCLiP bile ducts only, without primary hepatocytes (negative control, Example 1)", "assay_type": "in vitro ADME, rat", "details": "no hepatocytes, 2 hours after CLF addition, FIG. 3B", "protocol": "The appearance 2 hours after the addition of the CLF solution was observed through the phase-contrast microscope and the fluorescence microscope (FIG. 3B)."}, "[3]": {"system": "bile ducts formed from rCLiPs only", "test": "CLF incubation of rCLiP bile ducts only, without human hepatocytes (negative control, Example 2)", "assay_type": "in vitro ADME, rat", "details": "no human hepatocytes, 30 min incubation in HBSS containing CLF, observed immediately, 4 and 24 hours after washing, FIG. 6B", "protocol": "(§2) After the incubation, the cells were washed with MSS not containing CLF, and the appearances of the cells immediately, 4 hours, and 24 hours after the washing were observed through a phase-contrast microscope and a fluorescence microscope (FIG. 6B)."}, "[4]": {"system": "bile ducts formed from the rCLiPs cocultured with human hepatocytes", "test": "CLF transfer to bile ducts in coculture of rCLiP bile ducts and human hepatocytes", "assay_type": "in vitro ADME", "details": "human hepatocytes cocultured 3 days; 30 min incubation in HBSS containing CLF; observed immediately, 4 and 24 hours after washing; excitation 470 nm; FIG. 6A", "excerpt": "as §1\nas §2, with “One day after the inoculation of the human hepatocytes, the medium was exchanged for BIM-2 medium. […] After” for “After”, “after” for “after the”, “6A). […]” for “6B).”"}}, "data": [{"smiles": "CC(CCC(=O)NC(CCCCNC(=S)Nc1ccc(-c2c3ccc(=O)cc-3oc3cc(O)ccc23)c(C(=O)O)c1)C(=O)O)C1CCC2C3C(O)CC4CC(O)CCC4(C)C3CC(O)C12C", "note": "(stereo not shown) [CLF, cholyl-lysyl-fluorescein]", "values": [{"measurement": "CLF fluorescence in bile ducts (secretion to biliary canaliculi and movement to bile ducts)", "setting": "[1]", "result": "fluorescence was detected from the bile ducts"}, {"measurement": "CLF fluorescence in bile ducts", "setting": "[2]", "result": "fluorescence was not, meanwhile, detected"}, {"measurement": "CLF fluorescence in bile ducts", "setting": "[3]", "result": "fluorescence was not, meanwhile, detected"}, {"measurement": "CLF fluorescence in bile ducts (secretion to biliary canaliculi and movement to bile ducts)", "setting": "[4]", "result": "fluorescence was detected from the bile ducts"}]}]}
